In patent publication US7799757B2, “Analogs of parathyroid hormone and PTH-related protein as bone anabolic agents” (priority 2002, dated 2010):
Non-standard residues stand in square brackets, D forms with d. Residues, ends and D or L forms follow the SMILES beside them. 2Nal = N[C@@H](Cc1ccc2ccccc2c1)C(=O)O; β3hL = CC(C)C[C@H](N)CC(=O)O; Nle = CCCC[C@H](N)C(=O)O; βAla = NCCC(=O)O

Tests used:
[1] = biological target: T1, recombinant hPTH1-receptor (Homo sapiens, UniProt Q03431); assay: Radioreceptor competition binding, 125I-PTH(1-34), HEK293/C21 cells; details: 125I-PTH(1-34) ~0.1 nM, 2 h at room temperature
T1 construct: expressed in transfected cells
T1 sequence (Q03431 27-593): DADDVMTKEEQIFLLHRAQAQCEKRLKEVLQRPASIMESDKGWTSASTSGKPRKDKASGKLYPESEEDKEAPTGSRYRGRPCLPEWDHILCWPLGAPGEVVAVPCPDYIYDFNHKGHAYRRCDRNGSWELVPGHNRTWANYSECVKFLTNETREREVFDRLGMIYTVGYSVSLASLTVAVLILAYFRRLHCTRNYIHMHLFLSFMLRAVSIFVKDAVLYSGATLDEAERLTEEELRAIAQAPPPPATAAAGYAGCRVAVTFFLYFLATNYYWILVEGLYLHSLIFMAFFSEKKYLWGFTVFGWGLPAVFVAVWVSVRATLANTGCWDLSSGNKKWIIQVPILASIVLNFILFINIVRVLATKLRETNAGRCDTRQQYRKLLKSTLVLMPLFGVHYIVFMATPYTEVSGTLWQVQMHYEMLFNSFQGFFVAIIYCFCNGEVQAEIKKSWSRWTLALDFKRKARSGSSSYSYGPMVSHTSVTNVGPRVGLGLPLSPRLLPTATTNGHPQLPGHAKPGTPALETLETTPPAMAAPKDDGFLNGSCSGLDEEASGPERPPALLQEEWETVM
Protocol: (§1) Human embryonic kidney (HEK293) cells, stably transfected with recombinant hPTH1-receptor (HEK293/C21 cell line, ˜400,000 receptors/cell) (Pines, M., Adams, A. E., Stueckle, S., Bessalle, R., Rashti-Behar, V., Chorev, M., Rosenblatt, M., and Suva, L. J. Endocrinology 1994, 135, 1713-1716), were maintained in D-MEM medium supplemented with 10% fetal bovine serum and […] glutamine at 37° C. in a humidified atmosphere of 95% air/5% CO2. The medium was changed every 3-4 days, and the cells were subcultured every week. Ligand stimulated adenylyl cyclase activity and radioreceptor competition binding assays were performed on confluent cultures, 1-3 days after a change of medium.
[Nle^8,18,Nal^23,Tyr^34]bPTH(1-34)-NH2 was radioiodinated and the crude material was purified as previously described (Roubini, E., Duong, L. T., Gibbons, S. W., Leu, C. T., Caulfield, M. P., Chorev, M., and Rosenblatt, M. Biochemistry 1992, 31, 4026-4033). […] The pure mono-radioiodinated peptide was isolated on an analytical RP-HPLC Vydac Protein C18 column (The Separation Group, Hesperia, Calif.) employing a linear gradient of 36-42% B in A for 30 min (A, 0.1% TFA in water; B, 0.1% TFA in acetonitrile) at a flow rate of 1 mL/min, and monitored at 220 nm. […]

[2] = biological target: T1, recombinant hPTH1-receptor; assay: Stimulation of adenylyl cyclase activity in HEK293/C21 cells; type: cell-based; details: 1 mM IBMX, 5 min incubation, read-out: EC50 (half maximal stimulation of adenylate cyclase)
Protocol: as §1
Stimulation of adenylyl cyclase activity by the PTH(1-34) analogues was assayed in stably transfected HEK293/C21 as described before (Nakamoto, C., Behar, V., Chin, K. R., Adams, A. E.; Suva, L. J.; Rosenblatt, M.; Chorev, M. Biochemistry 1995, 34, 10546-10552.). Shortly, cells were grown to confluence in 24-well culture dishes. They were then incubated with 0.5 μCi [^3H]adenine in fresh PBS supplemented medium at 37° C. for 2 h and further treated with 1 mM 3-isobutyl-1-methylxantine (IBMX) in fresh medium for 15 min at 37° C. […] Radioactivity was measured in a liquid scintillation counter (Beciman LS6000IC liquid scintillation counter, Downers Grove, Ill.).

IC50 [1] [nM] | EC50 [2] [nM] | SMILES
> 1000 |  | CCCC[C@H](NC(=O)[C@H](Cc1ccccc1)NC(=O)[C@H](CCC(N)=O)NC(=O)[C@@H](NC(=O)[C@H](CCC(=O)O)NC(=O)[C@H](CO)NC(=O)[C@@H](NC(=O)[C@H](C)N)C(C)C)[C@@H](C)CC)C(=O)N[C@@H](Cc1c[nH]cn1)C(=O)N[C@@H](CC(N)=O)C(=O)N[C@@H](CC(C)C)C(=O)NCC(=O)N[C@@H](CCCCN)C(=O)N[C@@H](Cc1c[nH]cn1)C(=O)N[C@@H](CC(C)C)C(=O)N[C@@H](CO)C(=O)NCCC(=O)N[C@H](CC(=O)NCCC(=O)N[C@@H](CCCNC(=N)N)C(=O)N[C@H](C(=O)N[C@@H](CCC(=O)O)C(=O)N[C@@H](Cc1ccc2ccccc2c1)C(=O)N[C@@H](CC(C)C)C(=O)N[C@@H](CCCNC(=N)N)C(=O)N[C@@H](CCCCN)C(=O)N[C@@H](CCCCN)C(=O)N[C@@H](CC(C)C)C(=O)N[C@@H](CCC(N)=O)C(=O)N[C@@H](CC(=O)O)C(=O)N[C@H](C(=O)N[C@@H](Cc1c[nH]cn1)C(=O)N[C@@H](CC(N)=O)C(=O)N[C@@H](Cc1ccc(O)cc1)C(N)=O)C(C)C)C(C)C)CC(C)C [SEQ ID NO: 17, [Nle^8,β-Ala^17,19,β-hLeu^18,Nal^23,Tyr^34]bPTH(1–34)NH2] (H-AVSEIQF[Nle]HNLGKHLS[βAla][β3hL][βAla]RVE[2Nal]LRKKLQDVHNY-NH2; N-terminus assumed)
> 1000 | 13.82 ± 0.02 | CCCC[C@H](NC(=O)[C@H](Cc1ccccc1)NC(=O)[C@H](CCC(N)=O)NC(=O)[C@@H](NC(=O)[C@H](CCC(=O)O)NC(=O)[C@H](CO)NC(=O)[C@@H](NC(=O)[C@H](C)N)C(C)C)[C@@H](C)CC)C(=O)N[C@@H](Cc1c[nH]cn1)C(=O)N[C@@H](CC(N)=O)C(=O)N[C@@H](CC(C)C)C(=O)NCC(=O)N[C@@H](CCCCN)C(=O)N[C@@H](Cc1c[nH]cn1)C(=O)N[C@@H](CC(C)C)C(=O)N[C@@H](CO)C(=O)N[C@@H](CO)C(=O)NCCC(=O)NCCC(=O)N[C@@H](CCCNC(=N)N)C(=O)N[C@H](C(=O)N[C@@H](CCC(=O)O)C(=O)N[C@@H](Cc1ccc2ccccc2c1)C(=O)N[C@@H](CC(C)C)C(=O)N[C@@H](CCCNC(=N)N)C(=O)N[C@@H](CCCCN)C(=O)N[C@@H](CCCCN)C(=O)N[C@@H](CC(C)C)C(=O)N[C@@H](CCC(N)=O)C(=O)N[C@@H](CC(=O)O)C(=O)N[C@H](C(=O)N[C@@H](Cc1c[nH]cn1)C(=O)N[C@@H](CC(N)=O)C(=O)N[C@@H](Cc1ccc(O)cc1)C(N)=O)C(C)C)C(C)C [SEQ ID NO: 14, [Nle^8,β-Ala^18,19,Nal^23,Tyr^34]bPTH(1–34)NH2] (H-AVSEIQF[Nle]HNLGKHLSS[βAla][βAla]RVE[2Nal]LRKKLQDVHNY-NH2; N-terminus assumed)
